# Calls of active or inactive are those of the source.
# Assays:
# [1] = cells; format: functional, cell-based
# [2] = cells; format: functional, cell-based; remark: listed apart in the source
# [3] = Luminescence Cell-Based Dose Confirmation HTS to Identify Activators of 5'UTR Stem-Loop Driven Alpha-Synuclein mRNA Translation in H4 Neuroglioblastoma Cells. [Related pubchem assays: 1829 (Project Summary), 1814 (Primary HTS)]; format: functional
# [4] = Luminescence Cell-Based Dose Response HTS to Identify Activators of Luciferase Translation or Activity in H4 […] Cells. [Related pubchem assays: 1829 (Project Summary), 1814 (Primary HTS)]; format: functional
# [5] = system: H4; assay: Luminescence Cell-Based Dose Response HTS to Identify Activators of 5'UTR Stem-Loop Driven Prion Protein mRNA Translation in H4 Neuroglioblastoma Cells. [Related pubchem assays: 1829 (Project Summary), 1814 (Primary HTS)]; format: functional; settings: Homo sapiens
# [6] = system: Streptococcus sp. 'group A'; assay: growth inhibition of control SK(-) GAS strain, dose response, counter-screen for streptokinase expression inhibitor project, luminescence, kanamycin, BacTiterGlo, confirmation (AID 1900); format: functional, organism-based
# [7] = system: Streptococcus; assay: Group A Streptococcus viability loss, dose response, counter-screen for streptokinase expression inhibitor project, luminescence, BacTiterGlo (AID 1915); format: functional, organism-based;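 further: potency for reduction of bacterial viability or growth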
# [8] = system: INS1; assay: beta cell apoptosis inhibitors, cytokine rescue, dose response, luminescence, retest (AID 449756); format: functional, cell-based; settings: Rattus norvegicus;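 further: cell death triggered by IL-1 beta plus TNF-alpha plus IFN-gamma mixture; protective hits raise ATP signal compared with cytokine alone wells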
# [9] = target: T1, Heat shock factor protein 1 (Mus musculus, UniProt P38532); assay: HSF1 potentiators in luciferase reporter cells, confirmation, cell-based, NIH3T3, luminescence, dose retest (AID 435004); format: functional;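 further: stress induced by proteasome inhibitor MG132 added 30 min after compound; luciferase reporter driven by HSF1 response element in NIH3T3 cells; actives raise luminescence as potentiators of the MG132 stress response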
# T1 sequence (P38532 whole entry): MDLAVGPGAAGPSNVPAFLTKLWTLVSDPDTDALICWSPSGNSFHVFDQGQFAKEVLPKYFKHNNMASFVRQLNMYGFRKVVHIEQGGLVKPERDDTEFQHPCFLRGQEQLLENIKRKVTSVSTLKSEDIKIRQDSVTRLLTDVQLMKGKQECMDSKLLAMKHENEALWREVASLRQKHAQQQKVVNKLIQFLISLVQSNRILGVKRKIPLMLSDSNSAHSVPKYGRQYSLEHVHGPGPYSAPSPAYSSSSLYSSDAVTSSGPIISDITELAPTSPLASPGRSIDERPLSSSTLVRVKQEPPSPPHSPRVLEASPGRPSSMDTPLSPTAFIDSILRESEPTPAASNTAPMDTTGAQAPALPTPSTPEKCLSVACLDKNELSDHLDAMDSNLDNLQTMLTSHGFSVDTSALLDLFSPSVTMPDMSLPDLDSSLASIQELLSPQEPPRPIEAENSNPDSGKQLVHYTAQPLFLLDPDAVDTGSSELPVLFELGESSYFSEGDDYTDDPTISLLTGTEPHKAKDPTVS
# [10] = target: T2, Streptokinase A (Streptococcus pyogenes serotype M1, UniProt P10520); assay: S. pyogenes streptokinase expression inhibitors, potency, dose response, plasminogen activation absorbance, OD405 (AID 1914); format: functional, Streptococcus pyogenes M1 GAS;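 further: secreted streptokinase activity via plasminogen activation per viability signal from cell pellet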
# T2 sequence (P10520 whole entry): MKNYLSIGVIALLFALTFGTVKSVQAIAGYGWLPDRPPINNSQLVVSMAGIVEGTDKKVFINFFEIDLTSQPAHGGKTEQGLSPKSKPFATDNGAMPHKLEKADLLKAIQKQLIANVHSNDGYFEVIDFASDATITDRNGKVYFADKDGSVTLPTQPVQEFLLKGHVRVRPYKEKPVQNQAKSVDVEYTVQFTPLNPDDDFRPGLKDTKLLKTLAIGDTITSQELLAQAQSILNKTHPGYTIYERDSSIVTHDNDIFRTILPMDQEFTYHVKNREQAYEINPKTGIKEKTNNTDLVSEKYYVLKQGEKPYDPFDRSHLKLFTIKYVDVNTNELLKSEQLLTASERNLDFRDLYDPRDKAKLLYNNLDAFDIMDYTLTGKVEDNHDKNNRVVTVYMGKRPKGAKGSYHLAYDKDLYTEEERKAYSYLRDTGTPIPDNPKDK
# [11] = Luminescence Cell-Based Dose Retest to Confirm Inhibitors of Cancer Stem Cells. [Related pubchem assays (depositor defined):AID2717, AID2721]; format: functional; settings: Homo sapiens
# [12] = target: Cytochrome P450 2C19 (Homo sapiens, UniProt P33261); assay: Cytochrome panel assay with activity outcomes. Panel member name: p450-cyp2c19 Compounds with AC50 equal or less than 10 uM are considered active; format: functional
# [13] = target: Cytochrome P450 3A4 (Homo sapiens, UniProt P08684);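 further: CYP3A4 tested as one member of a cytochrome P450 panel screen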
# [14] = target: Cytochrome P450 2C9 (Homo sapiens, UniProt P11712)
# [15] = inhibitors of intracellular T. cruzi replication, confirmation, NIH3T3 host cells, beta-gal luminescence (AID 2044); format: functional, cell-based;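 further: intracellular parasites grown in NIH/3T3 mouse fibroblasts as host cells; luminescent beta-galactosidase reporter signal from transgenic T. cruzi replicating inside host cells; inhibitors lower the luminescence signal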
# [16] = cytotoxicity toward NIH3T3 fibroblasts, dose response, counter-screen, cell-based, ATP luminescence, mouse fibroblasts (AID 2010); format: functional;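 further: cells exposed to compound for about 90 hours before reading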
# [17] = target: T3, Replicative DNA helicase DnaB (Mycobacterium tuberculosis, UniProt P9WMR3); assay: DnaB intein splicing inhibitors, dose response, biochemical, cell-free fluorescence (AID 449749); format: functional
# T3 sequence (P9WMR3 whole entry): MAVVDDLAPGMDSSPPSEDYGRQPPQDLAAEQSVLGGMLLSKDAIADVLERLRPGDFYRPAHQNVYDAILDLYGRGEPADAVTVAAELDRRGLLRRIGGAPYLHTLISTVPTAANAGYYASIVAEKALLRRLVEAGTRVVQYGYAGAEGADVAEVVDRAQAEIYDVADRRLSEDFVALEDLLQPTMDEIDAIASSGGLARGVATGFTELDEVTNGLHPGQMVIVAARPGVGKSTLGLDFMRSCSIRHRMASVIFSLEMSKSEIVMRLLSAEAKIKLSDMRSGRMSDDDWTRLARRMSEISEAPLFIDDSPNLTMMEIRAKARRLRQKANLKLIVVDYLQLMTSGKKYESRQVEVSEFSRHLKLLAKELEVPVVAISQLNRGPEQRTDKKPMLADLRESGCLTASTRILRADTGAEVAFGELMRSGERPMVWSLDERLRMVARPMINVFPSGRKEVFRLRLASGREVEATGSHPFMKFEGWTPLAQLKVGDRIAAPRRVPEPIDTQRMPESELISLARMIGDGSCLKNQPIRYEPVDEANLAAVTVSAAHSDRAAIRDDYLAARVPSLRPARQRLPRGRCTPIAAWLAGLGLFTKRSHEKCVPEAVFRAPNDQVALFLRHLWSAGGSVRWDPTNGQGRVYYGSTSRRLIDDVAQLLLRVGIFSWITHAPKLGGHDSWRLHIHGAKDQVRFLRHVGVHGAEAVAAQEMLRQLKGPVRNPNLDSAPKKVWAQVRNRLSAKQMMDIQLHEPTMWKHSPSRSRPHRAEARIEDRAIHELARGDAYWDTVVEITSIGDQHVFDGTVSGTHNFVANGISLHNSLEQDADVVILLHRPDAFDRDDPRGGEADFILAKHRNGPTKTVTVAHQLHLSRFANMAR
# [18] = target: T4, Protein RecA (Mycobacterium tuberculosis, UniProt P9WHJ3); assay: Fluorescence Cell-Free Homogeneous Dose Retest to Identify Inhibitors of RecA-Intein Splicing Activity. [Related pubchem assays (depositor defined):AID2097, AID2223, AID489010, AID492950]; format: functional
# T4 sequence (P9WHJ3 whole entry): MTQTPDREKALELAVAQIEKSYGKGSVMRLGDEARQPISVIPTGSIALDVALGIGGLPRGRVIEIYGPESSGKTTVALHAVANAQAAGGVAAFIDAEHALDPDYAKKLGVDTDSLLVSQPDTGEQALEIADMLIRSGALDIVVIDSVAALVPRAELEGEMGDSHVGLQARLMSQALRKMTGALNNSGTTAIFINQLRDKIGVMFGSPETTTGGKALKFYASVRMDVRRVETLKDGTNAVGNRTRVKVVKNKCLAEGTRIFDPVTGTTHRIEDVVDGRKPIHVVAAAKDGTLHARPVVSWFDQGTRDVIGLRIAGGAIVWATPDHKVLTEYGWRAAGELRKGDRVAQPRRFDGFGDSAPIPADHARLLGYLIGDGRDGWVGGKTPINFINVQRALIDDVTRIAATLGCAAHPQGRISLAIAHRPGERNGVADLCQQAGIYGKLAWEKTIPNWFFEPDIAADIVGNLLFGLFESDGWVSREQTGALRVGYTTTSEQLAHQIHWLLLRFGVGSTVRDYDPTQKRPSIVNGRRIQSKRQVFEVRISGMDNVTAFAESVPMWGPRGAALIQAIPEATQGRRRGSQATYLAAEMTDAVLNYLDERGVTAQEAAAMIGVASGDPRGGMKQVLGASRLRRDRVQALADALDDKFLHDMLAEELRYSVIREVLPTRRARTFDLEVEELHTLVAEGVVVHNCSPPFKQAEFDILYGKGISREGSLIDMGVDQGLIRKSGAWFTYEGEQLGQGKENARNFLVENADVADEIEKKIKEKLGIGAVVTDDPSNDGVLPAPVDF
# Chain of Cytochrome P450 3A4 (P08684 whole entry): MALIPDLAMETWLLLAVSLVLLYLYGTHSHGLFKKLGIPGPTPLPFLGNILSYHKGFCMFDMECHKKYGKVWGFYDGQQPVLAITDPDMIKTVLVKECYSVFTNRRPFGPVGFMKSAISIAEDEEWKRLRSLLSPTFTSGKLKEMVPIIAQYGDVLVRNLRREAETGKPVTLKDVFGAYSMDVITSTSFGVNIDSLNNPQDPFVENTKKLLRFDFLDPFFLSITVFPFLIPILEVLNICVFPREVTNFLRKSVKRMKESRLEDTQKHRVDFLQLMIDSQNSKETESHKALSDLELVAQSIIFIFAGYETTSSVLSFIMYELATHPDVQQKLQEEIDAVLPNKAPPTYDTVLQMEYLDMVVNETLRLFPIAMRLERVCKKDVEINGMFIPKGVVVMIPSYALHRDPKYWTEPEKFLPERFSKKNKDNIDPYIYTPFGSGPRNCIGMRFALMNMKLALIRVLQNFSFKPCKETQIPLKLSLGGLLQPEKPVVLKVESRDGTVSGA
# Chain of Cytochrome P450 2C19 (P33261 whole entry): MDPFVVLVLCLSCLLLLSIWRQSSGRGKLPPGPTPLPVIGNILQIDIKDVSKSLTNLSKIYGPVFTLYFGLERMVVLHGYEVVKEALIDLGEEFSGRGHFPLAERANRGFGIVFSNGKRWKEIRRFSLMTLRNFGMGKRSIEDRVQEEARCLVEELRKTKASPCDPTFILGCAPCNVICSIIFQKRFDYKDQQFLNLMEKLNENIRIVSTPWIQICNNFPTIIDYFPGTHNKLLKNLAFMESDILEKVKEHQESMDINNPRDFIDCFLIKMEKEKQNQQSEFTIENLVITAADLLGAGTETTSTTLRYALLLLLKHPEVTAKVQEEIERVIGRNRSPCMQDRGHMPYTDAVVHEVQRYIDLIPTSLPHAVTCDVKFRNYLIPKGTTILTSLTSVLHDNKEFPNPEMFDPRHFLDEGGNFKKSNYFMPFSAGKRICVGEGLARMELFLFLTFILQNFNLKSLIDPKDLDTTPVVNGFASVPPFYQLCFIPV
# Chain of Cytochrome P450 2C9 (P11712 whole entry): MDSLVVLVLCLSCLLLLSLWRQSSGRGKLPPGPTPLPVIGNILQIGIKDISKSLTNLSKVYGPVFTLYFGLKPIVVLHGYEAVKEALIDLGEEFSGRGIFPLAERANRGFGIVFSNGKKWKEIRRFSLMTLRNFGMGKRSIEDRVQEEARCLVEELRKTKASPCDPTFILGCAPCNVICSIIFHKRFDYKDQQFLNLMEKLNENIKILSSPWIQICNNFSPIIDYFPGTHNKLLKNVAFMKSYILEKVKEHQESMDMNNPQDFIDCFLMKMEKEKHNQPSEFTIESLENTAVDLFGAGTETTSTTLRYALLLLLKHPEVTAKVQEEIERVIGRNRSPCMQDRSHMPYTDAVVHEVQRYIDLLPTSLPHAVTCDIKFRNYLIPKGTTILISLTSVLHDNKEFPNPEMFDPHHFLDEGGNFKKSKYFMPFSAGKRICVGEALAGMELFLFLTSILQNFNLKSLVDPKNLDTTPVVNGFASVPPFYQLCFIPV
compound,measurement,setting,value
Cc1cc(SCC(=O)N/N=C/c2ccccc2C(=O)O)c(C)cc1Br,EC50,[1],> 350 µM (not active)
same,EC50,[2],> 350 µM (not active)
CCCCOC(=O)c1ccc(NC(=S)NC(=O)c2c(Br)c(C)nn2C)cc1,EC50,[1],> 350 µM (not active)
same,EC50,[2],44.9 µM (active)
CCC(=O)c1ccc(N2CCN(C(=O)c3ccc(Br)cc3)CC2)c(F)c1,EC50,[1],> 350 µM (not active)
same,EC50,[2],> 350 µM (not active)
CCc1cc(C=C(Cl)Cl)oc(=O)c1C,EC50,[3],6.98 µM (active)
same,EC50,[4],8.12 µM (active)
same,EC50,[5],> 120 µM (not active)
Cc1ccc(/C=N/NC(=O)Cc2ccc(Cl)cc2)c(O)c1,EC50,[6],1.1 µM (active)
same,EC50,[7],3.08 µM (active)
same,AC50,[8],3.76 µM (active)
O=C(OCC(=O)c1cccs1)C1=COCCO1,EC50,[3],15.4 µM (active)
same,EC50,[4],9.36 µM (active)
same,EC50,[5],8.15 µM (active)
COc1ccc(/C=N/NC(=O)c2cccnc2)c(C(=O)O)c1OC,EC50,[9],> 260 µM (inactive)
O=C(CCCC1=NS(=O)(=O)c2ccccc2N1)N1CCN(c2ccccc2)CC1,EC50,[9],> 260 µM (inactive)
CCC(C)Sc1cccc(-c2nc3ccc(C)cn3c2NCc2ccccc2)c1 (centres undefined),EC50,[6],3.25 µM (active)
same,EC50,[10],4.26 µM (active)
same,EC50,[7],10.3 µM (active)
same,AC50,[11],2.75 µM (active)
same,AC50,[8],7.39 µM (active)
CC(C)(C)NC(=O)NC(=O)CN1CC=C(c2ccccc2)CC1,EC50,[9],> 260 µM (inactive)
CNc1nc(N)c([N+](=O)[O-])c(Nc2cccc(F)c2)n1,AC50,[8],> 260 µM (inactive)
CCn1c(SCC(=O)N/N=C/C=C/c2ccco2)nc2ccccc21,EC50,[9],> 260 µM (inactive)
CCOC(=O)C1(Cc2ccc(OC)cc2)CCN(C(=O)c2cc3ccccc3[nH]2)CC1,EC50,[9],30.3 µM (active)
CC(=O)c1ccc(N(C(=O)c2csnn2)C(C(=O)NC(C)(C)C)c2cccs2)cc1 (centres undefined),EC50,[1],> 350 µM (not active)
same,EC50,[2],> 350 µM (not active)
C/C(=N\NC(=O)C(=O)Nc1cccc(Cl)c1)c1ccncc1,AC50,[8],4.88 µM (active)
CCc1cc(=O)oc2c(CNCc3ccccc3F)c(O)c(Cl)cc12,EC50,[9],> 260 µM (inactive)
CCOc1ccc(C(=O)Nc2ccc3c(c2)OCCO3)cc1,EC50,[9],> 260 µM (inconclusive)
CCOc1ccccc1CN1CCNC(=O)C1CC(=O)NCc1nccn1CC (centres undefined),EC50,[9],> 260 µM (inactive)
CCN=C(S)N1CCN(S(=O)(=O)c2cccc(C(F)(F)F)c2)CC1,EC50,[9],> 260 µM (inactive)
CCNS(=O)(=O)c1ccc(NC(=O)c2cncc(Br)c2)cc1,EC50,[1],> 350 µM (not active)
same,EC50,[2],> 350 µM (not active)
O=C(CSc1ncccn1)Nc1ccc(S(=O)(=O)N2CCCCC2)cc1,AC50,[12]; read-out: AC50,25.1 µM (inconclusive)
same,AC50,[13],25.1 µM (inconclusive)
Cc1ccc(NC(=O)C2CC(=O)n3c(nc4ccccc43)N2)cc1 (centres undefined),AC50,[12]; read-out: AC50,6.31 µM (inconclusive)
same,AC50,[13],17.8 µM (inconclusive)
same,AC50,[14],0.0355 µM (inconclusive)
Cc1nnc(Sc2nc3c(c(=O)n(C)c(=O)n3C)n2Cc2ccccc2Cl)s1,EC50,[9],> 260 µM (inactive)
CCOC(=O)c1ccc(S(=O)(=O)NNC(=O)COc2ccccc2C)cc1,EC50,[1],> 350 µM (not active)
same,EC50,[2],> 350 µM (not active)
CN(Cc1cccc(C(F)(F)F)c1)C(=O)C1CCC(=O)N(CC2CCCCC2)C1 (centres undefined),EC50,[1],> 350 µM (not active)
same,EC50,[2],> 350 µM (not active)
Cc1cc2nc(CCN(C(S)=NCC3CCCO3)C3CCCC3)[nH]c2cc1C (centres undefined),EC50,[9],> 260 µM (inactive)
Cc1nc2ncnn2c(C)c1CCC(=O)NCc1ccco1,EC50,[9],> 260 µM (inactive)
same,AC50,[12],inconclusive
same,AC50,[13],10 µM (inconclusive)
O=C(Cn1c(-c2ccccc2)c[n+]2ccsc12)c1ccc([N+](=O)[O-])cc1,EC50,[15],0.549 µM (active)
same,EC50,[16],> 60 µM (not active)
same,AC50,[8],11.6 µM (active)
Cc1ccc(C)c(S(=O)(=O)Nc2ccc(O)c3ccccc23)c1,AC50,[17],0.384 µM (active)
same,EC50,[18],0.0745 µM (active)
same,AC50,[8],7.62 µM (active)
COC(=O)Nc1nnc(Cc2ccc(OC)cc2)s1,EC50,[1],> 350 µM (not active)
same,EC50,[2],> 350 µM (not active)
O=[N+]([O-])c1ccc(OCCCCN2CCCCC2)cc1,EC50,[1],> 350 µM (not active)
same,EC50,[2],> 350 µM (not active)

# Source: ChEMBL document CHEMBL1201862, “PubChem BioAssay data set” (2004)
